Test results published in PubChem BioAssay AID732 (Emory University Molecular Libraries Screening Center, 2007).
The source made the active and inactive calls. No rule for the calls is given here.

Each compound was assayed on in vivo angiogenesis, blood vessel count (assay: angiogenesis inhibition in living animals, in vivo study, HTS (AID 732;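 also: zebrafish embryos dosed at one day post fertilization; 0% = reference inhibitor and 100% = plate mean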)). Conditions: stronger effect = lower value;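 tested at 30 µM in the well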.

Compound | vessel count % control
NC(N)=NCCC[C@H](N)C(=O)O | 94.3% (inactive)
O=C(O)c1nn(Cc2ccc(Cl)cc2Cl)c2ccccc12 | 87.2% (inactive)
CC(CCc1ccc(O)cc1)NCCc1ccc(O)c(O)c1 (stereo not given) | 92.8% (inactive)
CCCCN1CCC(n2c(=O)[nH]c3ccccc32)CC1 | 67.2% (inactive)
CCCCCCC/C=C\CCCCCCCCC(=O)O | 106% (inactive)
CC(C)C[C@H](N)CSSC[C@@H](N)CC(C)C | 39.2% (inactive)
CN1CCc2cc(O)cc3c2[C@H]1Cc1ccc(O)c(O)c1-3 | 96.7% (inactive)
O=C1C(SCCO)=C(SCCO)C(=O)c2ccccc21 | 0% (inactive)
CC(C)(Oc1ccc(C2CC2(Cl)Cl)cc1)C(=O)O (stereo not given) | 96.9% (inactive)
CC(N)Cc1c[nH]c2ccc(OCc3cccs3)cc12 (stereo not given) | 107% (inactive)
O=[N+]([O-])c1ccc2nc(N3CCNCC3)ccc2c1 | 118% (inactive)
Clc1ccc(C(c2ccccc2Cl)C(Cl)Cl)cc1 (stereo not given) | 92.7% (inactive)
Cn1ccnc1 | 109% (inactive)
Cn1cnc2c(NC3CCCC3)ncnc21 | 95.9% (inactive)
CCN(CCCl)Cc1ccccc1Br | 99.8% (inactive)
CC(C)N(CCC(=O)c1ccc2ccccc2c1)Cc1ccccc1 | 0% (inactive)
Clc1ccc(N2CCN(Cc3c[nH]c4ncccc34)CC2)cc1 | 83.7% (inactive)
O=C(O)Cc1c[nH]c2ccc(O)cc12 | 92.5% (inactive)
CNC(=O)Oc1ccc2c(c1)[C@]1(C)CCN(C)[C@@H]1N2C | 120% (inactive)
C=C1C(=O)O[C@@H]2[C@H]3O[C@]3(C)CCC=C(C)CC[C@@H]12 | 92.5% (inactive)
CN(C)CCCCSC(=N)N | 105% (inactive)
O=C(O)CCC/C=C\C[C@@H]1[C@@H](/C=C/[C@H](O)C2Cc3ccccc3C2)[C@@H](F)C[C@@H]1O | 121% (inactive)
Cc1cnc(NC(=O)C2=C(O)c3ccccc3S(=O)(=O)N2C)s1 | 136% (inactive)
O=[N+]([O-])c1cccc2c(Br)[nH]nc12 | 99.9% (inactive)
COc1cc(=O)n(C)c2c(OCC(O)C(C)(C)O)cccc12 (stereo not given) | 75.4% (inactive)

Compound | vessel count % control
NC(=O)c1cccc(N)c1 | 117% (inactive)
O=C(O)/C=C/c1ccc(O)c(O)c1 | 108% (inactive)
COC(=O)N1CCN(C(=O)Cc2ccc(Cl)c(Cl)c2)C(CN2CCCC2)C1 (stereo not given) | 116% (inactive)
CCOC(=O)C1=C[C@]2(CC)CCCN3CCc4c(n1c1ccccc41)[C@@H]32 | 0% (inactive)
NC(=O)C1=CN(C2OC(COP(=O)(O)OP(=O)(O)OC[C@H]3O[C@@H](n4cnc5c(N)ncnc54)C(OP(=O)(O)O)[C@H]3O)C(O)C2O)C=CC1 (stereo not given in full) | 101% (inactive)
C[N+]1(C)CCOC(O)(c2ccc(-c3ccc(C4(O)C[N+](C)(C)CCO4)cc3)cc2)C1 (stereo not given) | 103% (inactive)
NCCCCCCNS(=O)(=O)c1cccc2c(Cl)cccc12 | 117% (inactive)
CC(=O)Oc1ccccc1C(=O)O | 105% (inactive)
CC(=O)/C(C)=N/O | 104% (inactive)
NC(N)=NC(N)=Nc1ccccc1 | 72.6% (inactive)
O=C(Cc1ccc(Cl)c(Cl)c1)N1CCCCC1CN1CCCC1 (stereo not given) | 114% (inactive)
N=C(N)c1ccc(OCCCCCOc2ccc(C(=N)N)cc2)cc1 (tested in a mixture with another compound) | 99.1% (inactive)
CC(CN1c2ccccc2Sc2ccccc21)N(C)C (stereo not given) | 97.7% (inactive)
NCCS | 106% (inactive)
O=C(O)c1cc(=O)cc(C(=O)O)[nH]1 | 86.1% (inactive)
C[C@](N)(Cc1ccc(O)c(O)c1)C(=O)O | 97.4% (inactive)
COc1ccc2[nH]c(I)c(CCNC(C)=O)c2c1 | 107% (inactive)
Cc1cc2c(cc1Cl)N(C(=O)Nc1ccnc3ccccc13)CC2 | 108% (inactive)
Cc1nccc2c1[nH]c1ccccc12 | 86.1% (inactive)
COc1cc(OC)c(/C=C2/C(=O)Nc3ccccc32)c(OC)c1 | 44.4% (inactive)
Fc1ccc([C@@H]2CCNC[C@H]2COc2ccc3c(c2)OCO3)cc1 | 138% (inactive)
NC(=O)c1ccccc1 | 92% (inactive)
CN(C)c1nc(N)c(C(=O)N=C(N)N)nc1Cl | 106% (inactive)
COC(=O)C(C)(N)Cc1ccc(O)cc1 (stereo not given) | 123% (inactive)
CCC1(O)CC2CN(CCc3c([nH]c4ccccc34)[C@@](C(=O)OC)(c3cc4c(cc3OC)N(C)C3[C@]45CCN4CC=C[C@@](CC)([C@@H](OC(C)=O)[C@]3(O)C(=O)OC)[C@H]45)C2)C1 (stereo not given in full) | 112% (inactive)
